Measured values reported in publication PMC10354095, “Insights into peculiar fungal LPMO family members holding a short C-terminal sequence reminiscent of phosphate binding motifs” (Scientific Reports, 2023).

Molecular target: T1, CciAA9-X282-CBM1 (Coprinopsis cinerea, UniProt A8NCG7)
T1 construct: gene AA9-X282; AA9-X282-linker-CBM1; C-terminal poly-His tag; Pichia pastoris X33
Experiment: Amplex Red/HRP oxidase assay (H2O2 production)
Type: biochemical
Conditions: reductant (electron donor) at 50 uM, O2 as co-substrate; 1 uM enzyme; sodium phosphate 50 mM, pH 7.0

T1 sequence (A8NCG7 19-342): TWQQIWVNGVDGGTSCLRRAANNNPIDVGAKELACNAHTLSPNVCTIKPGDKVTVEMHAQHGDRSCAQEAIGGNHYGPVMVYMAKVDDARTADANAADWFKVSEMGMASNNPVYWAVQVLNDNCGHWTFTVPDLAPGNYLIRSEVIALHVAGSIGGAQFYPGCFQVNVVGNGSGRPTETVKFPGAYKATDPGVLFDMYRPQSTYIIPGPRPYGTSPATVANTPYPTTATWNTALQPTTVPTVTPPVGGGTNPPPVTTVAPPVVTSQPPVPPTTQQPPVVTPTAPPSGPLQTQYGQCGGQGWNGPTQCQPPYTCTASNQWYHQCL

O=C1O[C@H]([C@@H](O)CO)C(O)=C1O [ascorbic acid] was tested, and the “Amplex Red/HRP oxidase assay (H2O2 production)” value was “all AA9-X282 LPMOs displayed an oxidase (i.e. H2O2 producing) activity”.
